Drawing on patent publication US12091425B2 (AMGEN INC., priority 2016, dated 2024), this text covers IC50 for 21 molecules.

For one assay, the target named is T1, Mcl-1/Bim interaction, recombinant human Mcl-1 (171-327) (Homo sapiens, UniProt Q07820).
T1 construct: made in house
T1 sequence (Q07820 171-327): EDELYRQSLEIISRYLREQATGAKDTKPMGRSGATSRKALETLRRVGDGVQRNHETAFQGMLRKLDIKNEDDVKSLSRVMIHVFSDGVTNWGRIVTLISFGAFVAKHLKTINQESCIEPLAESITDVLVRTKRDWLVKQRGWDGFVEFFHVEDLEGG
The experiment in a line: Cell free Mcl-1: Bim Affinity Assay (Mcl-1 HTRF). The following applies: TR-FRET, 0.1 nM Mcl-1 (171-327), 0.05 nM biotin-Bim (51-76). The assay is classed as binding. The procedure: Cell free Mcl-1: Bim Affinity Assay (Mcl-1 HTRF)
The inhibition of the Mcl-1/Bim interaction was measured using a time-resolved fluorescence resonance energy transfer (TR-FRET) assay. […] A biotinylated peptide derived from human Bim (residues 51-76) was purchased from CPC Scientific (San Jose, CA). The TR-FRET assay was conducted in a 384-well white OptiPlatem (PerkinElmer, Waltham, MA) in a total volume of 40 μL. […] The reaction plates were further incubated overnight and then were read on an Envision® multimode reader (PerkinElmer). […] The IC50 values of test compounds were determined from duplicate data by analyzing competition curves using a four-parameter sigmoidal model in GraphPad Prism (GraphPad Software, San Diego, CA) or in Genedata Screener® (Genedata, Basel, Switzerland).
Background: In TR-FRET formats the signal depends on donor and acceptor labels being close together.
As a reminder, the IC50 is the point on the concentration scale where inhibition reaches its midpoint. Turning to `CCOC[C@@H]1CC/C=C/[C@H](O)[C@@H]2CC[C@H]2CN2C[C@@]3(CCCc4cc(Cl)ccc43)COc3ccc(cc32)C(=O)NS1(=O)=O` (single isomer, unassigned) [Example 439], the concentration for half-maximal inhibition (IC50) came to 0.321 nM.

`CCN1CC/C=C\[C@H](O)[C@@H]2CC[C@H]2CN2C[C@@]3(CCCc4cc(Cl)ccc43)COc3ccc(cc32)C(=O)NS1(=O)=O` (single isomer, unassigned) [Example 30]: the IC50 was 1.92 nM.

For `O=C1NS(=O)(=O)CCCCCC[C@@H]2CC[C@H]2CN2C[C@@]3(CCCc4cc(Cl)ccc43)COc3ccc1cc32` [Example 1084, (1S,3′R,6′R)-6-chloro-3,4-dihydro-2H,15′H-spiro[naphthalene-1,22′-[20]oxa[13]thia[1,14]diazatetracyclo[14.7.2.0^3,6.0^19,24]pentacosa[16,18,24]trien]-15′-one 13′,13′-dioxide], the IC50 came to 13.6 nM.

On to `COC[C@H]1CC/C=C/[C@H](O)[C@@H]2CC[C@H]2CN2C[C@@]3(CCCc4cc(Cl)ccc43)COc3ccc(cc32)C(=O)NS1(=O)=O` [Example 435, (1S,3′R,6′R,7′S,8′E,12′R)-6-chloro-7′-hydroxy-12′-(methoxymethyl)-3,4-dihydro-2H,15′H-spiro[naphthalene-1,22′-[20]oxa[13]thia[1,14]diazatetracyclo[14.7.2.0^3,6.0^19,24]pentacosa [8,16,18,24]tetraen]-15′-one 13′,13′-dioxide], for which the IC50 was determined as 2.56 nM.

Consider `COCCOCC1CCC=CC(O)C2CCC2CN2CC3(CCCc4cc(Cl)ccc43)COc3ccc(cc32)C(=O)NS1(=O)=O` (single isomer, unassigned) [Example 447], for which the IC50 was 0.378 nM.

On to `O=C1NS(=O)(=O)[C@H]2C[C@@H](/C=C/[C@H](O)[C@@H]3CC[C@H]3CN3C[C@@]4(CCCc5cc(Cl)ccc54)COc4ccc1cc43)C2` [Example 100, (1S,3′R,6′R,7′S,8′E,10′S,12′R)-6-chloro-7′-hydroxy-3,4-dihydro-2H,15′H-spiro[naphthalene-1,22′-[20]oxa[13]thia[1,14]diazapentacyclo[14.7.2.1^10,12.0^3,6.0^19,24]hexacosa[8,16,18,24]tetraen]-15′-one 13′,13′-dioxide], for which the concentration for half-maximal inhibition (IC50) amounted to 2.45 nM.

Regarding `C/C=C/C1CC(=O)[C@@H]2CC[C@H]2CN2C[C@@]3(CCCc4cc(Cl)ccc43)COc3ccc(cc32)C(=O)NS(=O)(=O)[C@H](C)[C@@H](C)C1` (stereo in doubt) [Example 353, (1S,3′R,6′R,9′S,11′S,12′R)-6-chloro-11′,12′-dimethyl-9′-((1E)-1-propen-1-yl)-3,4-dihydro-2H,7′H,15′H-spiro[naphthalene-1,22′-[20]oxa[13]thia[1,14]diazatetracyclo[14.7.2.0^3,6.0^19,24]pentacosa [16,18,24]triene]-7′,15′-dione 13′,13′-dioxide], the IC50 is 9.09 nM.

As for `C[C@@H]1[C@H](C)/C=C/[C@H](O)[C@@H]2CC[C@H]2CN2C[C@@]3(CCCc4cc(Cl)ccc43)COc3ccc(cc32)C(=O)NS(=O)(=O)[C@H]1C` (single isomer, unassigned) [Example 1044], the IC50 amounted to 35.8 nM.

Turning to `CC[C@@H]1CC/C=C/[C@H](OCC(=O)NC(C)C)[C@@H]2CC[C@H]2CN2C[C@@]3(CCCc4cc(Cl)ccc43)COc3ccc(cc32)C(=O)NS1(=O)=O` [Example 422, 2-(((1S,3′R,6′R,7′S,8′E,12′R)-6-chloro-12′-ethyl-13′,13′-dioxido-15′-oxo-3,4-dihydro-2H-spiro[naphthalene-1,22′-[20]oxa[13]thia[1,14]diazatetracyclo[14.7.2.0^3,6.0^19,24]pentacosa [8,16,18,24]tetraen]-7′-yl)oxy)-N-(1-methylethyl)acetamide], the IC50 was found to be 0.865 nM.

Turning to `CC[C@@H]1CC/C=C/[C@H](OCC#N)[C@@H]2CC[C@H]2CN2C[C@@]3(CCCc4cc(Cl)ccc43)COc3ccc(cc32)C(=O)NS1(=O)=O` [Example 982, (((1S,3′R,6′R,7′S,8′E,12′R)-6-chloro-12′-ethyl-13′,13′-dioxido-15′-oxo-3,4-dihydro-2H-spiro[naphthalene-1,22′-[20]oxa[13]thia[1,14]diazatetracyclo[14.7.2.0^3,6.0^19,24]pentacosa [8,16,18,24]tetraen]-7′-yl)oxy)acetonitrile], the IC50 was 3.14 nM.

`CCO[C@H]1/C=C/CC[C@@H](CC)S(=O)(=O)NC(=O)c2ccc3c(c2)N(C[C@@H]2CC[C@H]21)C[C@@]1(CCCc2cc(Cl)ccc21)CO3` [Example 975, (1S,3′R,6′R,7′S,8′E,12′R)-6-chloro-7′-ethoxy-12′-ethyl-3,4-dihydro-2H,15′H-spiro[naphthalene-1,22′-[20]oxa[13]thia[1,14]diazatetracyclo[14.7.2.0^3,6.0^19,24]pentacosa [8,16,18,24]tetraen]-15′-one 13′,13′-dioxide]: the IC50 amounted to 2.15 nM.

Staying with this assay, now noted: cell free Mcl-1:Bim TR-FRET, recombinant human Mcl-1 (171-327).
In the case of `O=C1NS(=O)(=O)CCCCCC(=NO)C2CCC2CN2CC3(CCCc4cc(Cl)ccc43)COc3ccc1cc32` (mixture of isomers) [Example 932, (1S,3′R,6′R,7′Z)-6-chloro-3,4-dihydro-2H,7′H,15′H-spiro[naphthalene-1,22′-[20]oxa[13]thia[1,14]diazatetracyclo[14.7.2.0^3,6.0^19,24]pentacosa [16,18,24]triene]-7,15′-dione 7-OXIME 13′,13′-dioxide and (1S,3′R,6′R,7′E)-6-chloro-3,4-dihydro-2H,7′H,15′H-spiro[naphthalene-1,22′-[20]oxa[13]thia[1,14]diazatetracyclo[14.7.2.0^3,6.0^19,24]pentacosa [16,18,24]triene]-7′,15′-dione 7-OXIME 13′,13′-dioxide], the IC50 was 3.69 nM.

With `O=C1NS(=O)(=O)C/C=C/[C@@H](O)CC[C@@H]2CC[C@H]2CN2C[C@@]3(CCCc4cc(Cl)ccc43)COc3ccc1cc32` (single isomer, unassigned) [Example 501], the IC50 stood at 1.49 nM.

For `O=C1NS(=O)(=O)CCOC/C=C/[C@@H]2CC[C@H]2CN2C[C@@]3(CCc4cc(Cl)ccc43)COc3ccc1cc32` [Example 817, (3R,6S,7E,22S)-5′-chloro-2′,3′-dihydro-15H-spiro[10,20-dioxa-13-thia-1,14-diazatetracyclo[14.7.2.0^3,6.0^19,24]pentacosa-7,16,18,24-tetraene-22,1′-inden]-15-one 13,13-dioxide], the IC50 came to 29.3 nM.

For `O=C1NS(=O)(=O)CCOCCCC2CCC2CN2C[C@@]3(CCCc4cc(Cl)ccc43)COc3ccc1cc32` (stereo in doubt) [Example 827, (3S,6R,22S)-6′-chloro-3′,4′-dihydro-2′H,15H-spiro[10,20-dioxa-13-thia-1,14-diazatetracyclo[14.7.2.0^3,6.0^19,24]pentacosa-16,18,24-triene-22,1′-naphthalen]-15-one 13,13-dioxide], the 50% inhibitory concentration (IC50) is 3.54 nM.

Consider `O=C1NS(=O)(=O)C/C=C\CCC[C@@H]2CC[C@H]2CN2C[C@@]3(CCCc4cc(Cl)ccc43)COc3ccc1cc32` (single isomer, unassigned) [Example 497], for which the IC50 is 4 nM.

Take `O=C1NS(=O)(=O)CCCCCC(=O)[C@@H]2CC[C@H]2CN2C[C@@]3(CCCc4cc(Cl)ccc43)COc3ccc1cc32` [Example 832, (1S,3′R,6′R)-6-chloro-3,4-dihydro-2H,7′H,15′H-spiro[naphthalene-1,22′-[20]oxa[13]thia[1,14]diazatetracyclo[14.7.2.0^3,6.0^19,24]pentacosa [16,18,24]triene]-7′,15′-dione 13′,13′-dioxide]: the IC50 came out at 8.26 nM.

As for `O=C1NS(=O)(=O)[C@H](CO)CCCC[C@H](O)[C@@H]2CC[C@H]2CN2C[C@@]3(CCCc4cc(Cl)ccc43)COc3ccc1cc32` (single isomer, unassigned) [Example 712], the 50% inhibitory concentration (IC50) stood at 0.995 nM.

As for `O=C1NS(=O)(=O)CCCCCC[C@H](O)[C@@H]2CC[C@H]2CN2C[C@@]3(CCCc4cc(Cl)ccc43)COc3ccc1cc32` [Example 835, (1S,3′R,6′R,7′S)-6-chloro-7′-hydroxy-3,4-dihydro-2H,16′H-spiro[naphthalene-1,23′[21]oxa[14]thia[1,15]diazatetracyclo[15.7.2.0^3,6.0^20,25]hexacosa[17,19,25]trien]-16′-one 14′,14′-dioxide], the IC50 worked out at 3.44 nM.

As to `O=C1NS(=O)(=O)CCCOC[C@H](O)[C@@H]2CC[C@H]2CN2C[C@@]3(CCCc4cc(Cl)ccc43)COc3ccc1cc32` (single isomer, unassigned) [Example 870, (3R,6R,7R,22S)-6′-chloro-7-hydroxy-3′,4′-dihydro-2′H,15H-spiro[9,20-dioxa-13-thia-1,14-diazatetracyclo[14.7.2.0^3,6.0^19,24]pentacosa-16,18,24-triene-22,1′-naphthalen]-15-one 13,13-dioxide or (3R,6R,7S,22S)-6′-chloro-7-hydroxy-3′,4′-dihydro-2′H,15H-spiro[9,20-dioxa-13-thia-1,14-diazatetra-cyclo[14.7.2.0^3,6.0^19,24]pentacosa-16,18,24-triene-22,1′-naphthalen]-15-one 13,13-dioxide], the IC50 turned out to be 8.26 nM.

`C[C@@H]1[C@@H](O)C/C=C/C[C@@H]2CC[C@H]2CN2C[C@@]3(CCCc4cc(Cl)ccc43)COc3ccc(cc32)C(=O)NS1(=O)=O` (single isomer, unassigned) [Example 504]: the IC50 amounted to 2.55 nM.
